Measured values reported in PMC3440086, “Profiling Environmental Chemicals for Activity in the Antioxidant Response Element Signaling Pathway Using a High Throughput Screening Approach” (Environmental Health Perspectives, 2012).
“Also recorded” adds a separate entry of the source.

Tested on: mutated ARE
Experiment: not given
Format: cell-based
Conditions: confirmation/follow-up studies, HepG2, mean ± SD

Compound	ARE-bla mutant IC50
O=C(O)CCCc1ccc(N(CCCl)CCCl)cc1 [Chlorambucil, reference compound]	inactive
Clc1ccc(C(c2ccc(Cl)cc2)C(Cl)Cl)cc1 [Rhothane (TDE), Tetrachlorodiphenylethane]	inactive
NC(=S)Nc1ccccc1 [Phenylthiourea]	inactive
[Cl][In]([Cl])[Cl] [Indium trichloride]	inactive
Nc1nc2ccc([N+](=O)[O-])cc2s1 [2-Amino-6-nitrobenzothiazole]	inactive
Cc1cccc2sc(N)nc12 [2-Amino-4-methylbenzothiazole]	inactive
N[C@@H](Cc1ccc(N(CCCl)CCCl)cc1)C(=O)O [Melphalan, reference compound]	inactive
Nc1ccc(N)c(Cl)c1.O=S(=O)(O)O [2-Chloro-p-phenylenediamine SO4]	inactive
O=c1cc(-c2ccccc2)oc2ccccc12 [Flavone]	inactive
Nc1cc(Cl)cc(Cl)c1 [3,5-Dichloroaniline]	inactive

Same assay, conditions: confirmation/follow-up studies; normalized to DMSO (0%) and ARE-bla maximal β-napthoflavone response (100%)

Compound	ARE-bla mutant Efficacy [%]
Oc1c(I)cc(Cl)c2cccnc12 [Iodochlorohydroxyquinoline]	21
O=C1c2ccccc2C(=O)C1c1ccc2ccccc2n1 [D & C Yellow II]	48

Same assay, conditions: follow-up studies, up to 46 µM

Compound	activity in ARE-bla-mut assay (words)
O=C1c2ccccc2C(=O)C1c1ccc2ccccc2n1 [D & C Yellow II]	may exhibit autofluorescence
O=C(O)CCCc1ccc(N(CCCl)CCCl)cc1 [Chlorambucil, reference compound]	inactive in all assays
N[C@@H](Cc1ccc(N(CCCl)CCCl)cc1)C(=O)O [Melphalan, reference compound]	inactive in all assays

Same assay, conditions: follow-up studies, up to 46 µM; listed as chlorambucil

Compound	activity in ARE-bla-mut assay (words)
O=C(O)CCCc1ccc(N(CCCl)CCCl)cc1 [Chlorambucil, reference compound]	inactive across all assays

Same assay, conditions: follow-up studies, up to 46 µM; listed as iodochlorohydroxyquinoline

Compound	activity in ARE-bla-mut assay (words)
Oc1c(I)cc(Cl)c2cccnc12 [Iodochlorohydroxyquinoline]	may exhibit autofluorescence; also recorded: active; also recorded: demonstrated activity

Same assay, conditions: follow-up studies, up to 46 µM; listed as melphalan

Compound	activity in ARE-bla-mut assay (words)
N[C@@H](Cc1ccc(N(CCCl)CCCl)cc1)C(=O)O [Melphalan, reference compound]	inactive across all assays

Tested on: Nrf2-dependent ARE transcriptional activity
Experiment: ARE-luc luciferase reporter gene assay in HepG2 cells (qHTS)
Format: cell-based
Conditions: Homo sapiens, HepG2, confirmation/follow-up studies; activation of ARE reporter as % of positive control (β-napthoflavone); read-out: ARE-luc Efficacy

Compound	Emax [%]
Oc1c(I)cc(Cl)c2cccnc12 [Iodochlorohydroxyquinoline]	147
O=c1cc(-c2ccccc2)oc2ccccc12 [Flavone]	47

Same assay, conditions: Homo sapiens; confirmation/follow-up studies, HepG2, 16 hr exposure, mean ± SD; read-out: ARE-luc EC50

Compound	EC50 [µM]
Oc1c(I)cc(Cl)c2cccnc12 [Iodochlorohydroxyquinoline]	10 ± 1.2
O=c1cc(-c2ccccc2)oc2ccccc12 [Flavone]	7.6 ± 0.5

Same assay, conditions: confirmation/follow-up studies, HepG2, 16 hr exposure, mean ± SD

Compound	ARE-luc EC50
O=C(O)CCCc1ccc(N(CCCl)CCCl)cc1 [Chlorambucil, reference compound]	inactive
NC(=S)Nc1ccccc1 [Phenylthiourea]	inactive
Nc1nc2ccc([N+](=O)[O-])cc2s1 [2-Amino-6-nitrobenzothiazole]	inactive
Cc1cccc2sc(N)nc12 [2-Amino-4-methylbenzothiazole]	inactive
N[C@@H](Cc1ccc(N(CCCl)CCCl)cc1)C(=O)O [Melphalan, reference compound]	inactive
Nc1cc(Cl)cc(Cl)c1 [3,5-Dichloroaniline]	inactive

Same assay, conditions: confirmation/follow-up studies, HepG2, 16 hr exposure, mean ± SD; read-out: ARE-luc EC50

Compound	EC50 [µM]
O=C1c2ccccc2C(=O)C1c1ccc2ccccc2n1 [D & C Yellow II]	1.2 ± 0.7
Clc1ccc(C(c2ccc(Cl)cc2)C(Cl)Cl)cc1 [Rhothane (TDE), Tetrachlorodiphenylethane]	13.5 ± 3.3
[Cl][In]([Cl])[Cl] [Indium trichloride]	25
Nc1ccc(N)c(Cl)c1.O=S(=O)(O)O [2-Chloro-p-phenylenediamine SO4]	26.5 ± 6

Same assay, conditions: confirmation/follow-up studies; […]

Compound	ARE-luc Efficacy [%]
[Cl][In]([Cl])[Cl] [Indium trichloride]	312
Nc1ccc(N)c(Cl)c1.O=S(=O)(O)O [2-Chloro-p-phenylenediamine SO4]	83

Same assay, conditions: confirmation/follow-up studies; activation of ARE reporter as % of positive control (β-napthoflavone)

Compound	ARE-luc Efficacy [%]
O=C1c2ccccc2C(=O)C1c1ccc2ccccc2n1 [D & C Yellow II]	185
Clc1ccc(C(c2ccc(Cl)cc2)C(Cl)Cl)cc1 [Rhothane (TDE), Tetrachlorodiphenylethane]	32

Same assay, conditions: follow-up studies, up to 46 µM

Compound	activity in ARE-luc assay (words)
Oc1c(I)cc(Cl)c2cccnc12 [Iodochlorohydroxyquinoline]	active
O=C(O)CCCc1ccc(N(CCCl)CCCl)cc1 [Chlorambucil, reference compound]	inactive in all assays
Clc1ccc(C(c2ccc(Cl)cc2)C(Cl)Cl)cc1 [Rhothane (TDE), Tetrachlorodiphenylethane]	active
N[C@@H](Cc1ccc(N(CCCl)CCCl)cc1)C(=O)O [Melphalan, reference compound]	inactive in all assays

Same assay, conditions: follow-up studies, up to 46 µM; listed as chlorambucil

Compound	activity in ARE-luc assay (words)
O=C(O)CCCc1ccc(N(CCCl)CCCl)cc1 [Chlorambucil, reference compound]	inactive across all assays

Same assay, conditions: follow-up studies, up to 46 µM; listed as iodochlorohydroxyquinoline

Compound	activity in ARE-luc assay (words)
Oc1c(I)cc(Cl)c2cccnc12 [Iodochlorohydroxyquinoline]	demonstrated activity

Same assay, conditions: follow-up studies, up to 46 µM; listed as melphalan

Compound	activity in ARE-luc assay (words)
N[C@@H](Cc1ccc(N(CCCl)CCCl)cc1)C(=O)O [Melphalan, reference compound]	inactive across all assays

Same assay, conditions: primary qHTS screening, 0.59 nM to 92 µM

Compound	activity in ARE-luc assay (words)
Clc1ccc(C(c2ccc(Cl)cc2)C(Cl)Cl)cc1 [Rhothane (TDE), Tetrachlorodiphenylethane]	inactive

Tested on: hypoxia-inducible factor 1
Experiment: not given
Set-up: method as in Xia et al. 2009
Conditions: β-lactamase reporter gene assay; ref Xia et al. 2009; cited from earlier work

Compound	activation of hypoxia-inducible factor 1
Oc1c(I)cc(Cl)c2cccnc12 [Iodochlorohydroxyquinoline]	activate

Tested on: antioxidant response element (ARE) signaling pathway
Experiment: ARE-bla β-lactamase reporter gene assay in HepG2 cells (qHTS)
Format: cell-based, human
Conditions: Homo sapiens, HepG2, confirmation/follow-up studies; activation of ARE reporter as % of positive control (β-napthoflavone); read-out: ARE-bla Efficacy

Compound	Emax [%]
Oc1c(I)cc(Cl)c2cccnc12 [Iodochlorohydroxyquinoline]	41
Nc1nc2ccc([N+](=O)[O-])cc2s1 [2-Amino-6-nitrobenzothiazole]	107
Cc1cccc2sc(N)nc12 [2-Amino-4-methylbenzothiazole]	49
O=c1cc(-c2ccccc2)oc2ccccc12 [Flavone]	80

Same assay, conditions: Homo sapiens; confirmation/follow-up studies, HepG2, 16 hr exposure, mean ± SD; read-out: ARE-bla EC50

Compound	EC50 [µM]
Oc1c(I)cc(Cl)c2cccnc12 [Iodochlorohydroxyquinoline]	17.2 ± 6
Nc1nc2ccc([N+](=O)[O-])cc2s1 [2-Amino-6-nitrobenzothiazole]	16.7 ± 9.6
Cc1cccc2sc(N)nc12 [2-Amino-4-methylbenzothiazole]	10.1 ± 2.1
O=c1cc(-c2ccccc2)oc2ccccc12 [Flavone]	2.4 ± 0.6

Same assay, conditions: confirmation/follow-up studies, HepG2, 16 hr exposure, mean ± SD

Compound	ARE-bla EC50
O=C(O)CCCc1ccc(N(CCCl)CCCl)cc1 [Chlorambucil, reference compound]	inactive
NC(=S)Nc1ccccc1 [Phenylthiourea]	inactive
Nc1cc(Cl)cc(Cl)c1 [3,5-Dichloroaniline]	inactive

Same assay, conditions: confirmation/follow-up studies, HepG2, 16 hr exposure, mean ± SD; read-out: ARE-bla EC50

Compound	EC50 [µM]
O=C1c2ccccc2C(=O)C1c1ccc2ccccc2n1 [D & C Yellow II]	0.7 ± 0.1
Clc1ccc(C(c2ccc(Cl)cc2)C(Cl)Cl)cc1 [Rhothane (TDE), Tetrachlorodiphenylethane]	16.4 ± 7.3
[Cl][In]([Cl])[Cl] [Indium trichloride]	14.8 ± 4.9
Nc1ccc(N)c(Cl)c1.O=S(=O)(O)O [2-Chloro-p-phenylenediamine SO4]	17.1 ± 4.1

Same assay, conditions: confirmation/follow-up studies; […]

Compound	ARE-bla Efficacy [%]
[Cl][In]([Cl])[Cl] [Indium trichloride]	92
Nc1ccc(N)c(Cl)c1.O=S(=O)(O)O [2-Chloro-p-phenylenediamine SO4]	72

Same assay, conditions: confirmation/follow-up studies; activation of ARE reporter as % of positive control (β-napthoflavone)

Compound	ARE-bla Efficacy [%]
O=C1c2ccccc2C(=O)C1c1ccc2ccccc2n1 [D & C Yellow II]	88
Clc1ccc(C(c2ccc(Cl)cc2)C(Cl)Cl)cc1 [Rhothane (TDE), Tetrachlorodiphenylethane]	43

Same assay, conditions: follow-up studies, up to 46 µM

Compound	activity in ARE-bla assay (words)
Oc1c(I)cc(Cl)c2cccnc12 [Iodochlorohydroxyquinoline]	active
O=C(O)CCCc1ccc(N(CCCl)CCCl)cc1 [Chlorambucil, reference compound]	inactive in all assays
Nc1nc2ccc([N+](=O)[O-])cc2s1 [2-Amino-6-nitrobenzothiazole]	active only in the ARE-bla assay
Cc1cccc2sc(N)nc12 [2-Amino-4-methylbenzothiazole]	active only in the ARE-bla assay
N[C@@H](Cc1ccc(N(CCCl)CCCl)cc1)C(=O)O [Melphalan, reference compound]	inactive in all assays

Same assay, conditions: follow-up studies, up to 46 µM; listed as chlorambucil

Compound	activity in ARE-bla assay (words)
O=C(O)CCCc1ccc(N(CCCl)CCCl)cc1 [Chlorambucil, reference compound]	inactive across all assays

Same assay, conditions: follow-up studies, up to 46 µM; listed as iodochlorohydroxyquinoline

Compound	activity in ARE-bla assay (words)
Oc1c(I)cc(Cl)c2cccnc12 [Iodochlorohydroxyquinoline]	demonstrated activity

Same assay, conditions: follow-up studies, up to 46 µM; listed as melphalan

Compound	activity in ARE-bla assay (words)
N[C@@H](Cc1ccc(N(CCCl)CCCl)cc1)C(=O)O [Melphalan, reference compound]	inactive across all assays

Same assay, conditions: primary qHTS screening, 0.59 nM to 92 µM

Compound	activity in ARE-bla assay (words)
N[C@@H](Cc1ccc(N(CCCl)CCCl)cc1)C(=O)O [Melphalan, reference compound]	showed activity

Tested on: ROS
Experiment: not given
Set-up: method as in Chen et al. 2009
Conditions: cell-based testing; ref Chen et al. 2009; cited from earlier work

Compound	generation of ROS
Oc1c(I)cc(Cl)c2cccnc12 [Iodochlorohydroxyquinoline]	confirmed
